Measurements as given in patent US8227450B2, “Lysine-based prodrugs of aspartyl protease inhibitors and processes for their preparation” (priority 2005, dated 2012).

Assay: Bioavailability: plasma concentration after oral administration to rats
Format: in vivo, male Sprague-Dawley rats
Conditions: for Presence of the unchanged prodrug in the blood samples: 50 mg/kg po as aqueous solution (PBS), HPLC-MS; for Presence of the unchanged prodrug in the blood samples / Delivery of parent drug (PL-100 / PL-337) compared to non-aqueous formulations of the parent drug: rat; for Delivery of parent drug (PL-100 / PL-337) compared to non-aqueous formulations of the parent drug: aqueous dosing, 50 mg/kg po; for AUC: rat plasma, 3 rats
Description: To assess the extent of in vivo cleavage of the phosphate group from the putative compounds, PL-100, PL-462 (based on PL-100), PL-337 and PL-515 (based on PL-337) compounds were administered per os (po) (50 mg/kg) to male Sprague-Dawley rats and their plasma concentration measured at different time intervals post-administration. All test articles (PL-100, PL-462, PL-337 and PL-515) were prepared in different vehicle at the final concentration of 25 mg/mL. The vehicle composition is as follows: (1) 20% ethanol; 50% propylene glycol; 0.05% w/v Tween 20 and water (Mix); (2) PBS buffer (PBS). Test articles were administered to male Sprague-Dawley rats at a single oral dose of 50 mg/kg. Each article was tested in three rats. Blood samples (0.2-0.3 mL) were collected at the post-dose time of 10, 20, 40, 60, 120, 180 and 360 minutes. The harvested blood was centrifuged to isolate plasma. The resulting plasma was separated and stored at −70° C. Plasma samples together with standards and quality control samples were treated to precipitate proteins, then analyzed by HPLC-MS, for the presence of PL-462, PL-100, PL-515 and PL-337.

[1] = prodrug dosed 50 mg/Kg po in PBS vehicle, parent drug detected (PL-100 or PL-337)
[2] = parent drug dosed 50 mg/Kg po in Mix vehicle (20% ethanol; 50% propylene glycol; 0.05% w/v Tween 20 and water)

Row | AUC [2] [μg/hr * ml] | SMILES | Presence of the unchanged prodrug in the blood samples | Delivery of parent drug (PL-100 / PL-337) compared to non-aqueous formulations of the parent drug | AUC [1] [μg/hr * ml]
1 | – | COC(=O)N[C@H](C(=O)NCCCC[C@@H](COP(=O)([O-])[O-])N(CC(C)C)S(=O)(=O)c1ccc(N)cc1)C(c1ccccc1)c1ccccc1.[Na+].[Na+] [PL-462, (1S,5S)-(1-{5-[(4-amino-benzenesulfonyl)-isobutyl-amino]-6-phosphonooxy-hexylcarbamoyl}-2,2-diphenyl-ethyl)-carbamic acid methyl ester sodium salt] | None of the PL-462 and PL-515 compounds, delivered as aqueous solutions, are detected | equivalent to slightly superior | 0.816 ± 0.295
2 | 1.180 ± 0.196 | COC(=O)N[C@H](C(=O)NCCCC[C@@H](CO)N(CC(C)C)S(=O)(=O)c1ccc(N)c(F)c1)C(c1ccccc1)c1ccccc1 [PL-337, (1-{5-[(4-amino-3-fluoro-benzenesulfonyl)-isobutyl-amino]-6-hydroxy-hexylcarbamoyl}-2,2-diphenyl-ethyl)-carbamic acid methyl ester] | – | – | –
3 | 0.675 ± 0.171 | COC(=O)N[C@H](C(=O)NCCCC[C@@H](CO)N(CC(C)C)S(=O)(=O)c1ccc(N)cc1)C(c1ccccc1)c1ccccc1 [PL-100, (1S,5S)-(1-{5-[(4-amino-benzenesulfonyl)-isobutyl-amino]-6-hydroxy-hexylcarbamoyl}-2,2-diphenyl-ethyl)-carbamic acid methyl ester] | – | – | –
4 | – | COC(=O)N[C@H](C(=O)NCCCC[C@@H](COP(=O)(O)O)N(CC(C)C)S(=O)(=O)c1ccc(N)c(F)c1)C(c1ccccc1)c1ccccc1 [PL-515, (1S,5S)-(1-{5-[(4-amino-3-fluoro-benzenesulfonyl)-isobutyl-amino]-6-phosphonooxy-hexylcarbamoyl}-2,2-diphenyl-ethyl)-carbamic acid methyl ester] | None of the PL-462 and PL-515 compounds, delivered as aqueous solutions, are detected | equivalent to slightly superior | 1.075 ± 0.625
